Measurements from patent US10041937B2, “Macrophage identification agent, and identification method, sorting method, evaluation method, screening method and kit using the macrophage identifier agent” (CANON KABUSHIKI KAISHA, priority 2013, dated 2018).

Tested on: M1 macrophages and M2 macrophages differentiated from mouse bone marrow cells
Assay: Subtype identification by staining and flow cytometry of M1 and M2 macrophages differentiated from mouse bone marrow cells
Type: cell-based, Balb/c mouse
Conditions: for Selectivity: subtype strongly stained
In short: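 Balb/c mouse bone marrow cells were differentiated to macrophages with 50 ng/mL M-CSF over two 3–4-day periods, then polarized for 3 days to M1 (interferon-γ plus polyliposaccharide) or M2 (IL-4). Live cells (aqua dye-negative) were analysed by flow cytometry; resolution R = |FM1−FM2|/(WM1+WM2) from histogram peak positions and widths indexed subtype discrimination.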

[1] = M1 vs M2 macrophages from mouse bone marrow cells, general formula (6) dyes (Table 7)
[2] = class based on resolution R, general formula (6) dyes (Table 7)
[3] = mouse bone marrow-derived M1 macrophages, channel listed per compound, general formula (6) dyes (Table 7)
[4] = mouse bone marrow-derived M2 macrophages, channel listed per compound, general formula (6) dyes (Table 7)
[5] = R=|FM1−FM2|/(WM1+WM2), compound 1 μM
[6] = fluorescence intensity at peak top of histogram, compound 1 μM, 37° C., 30 minutes
[7] = M1 vs M2 macrophages from mouse bone marrow cells, general formula (10) dyes (Table 8)
[8] = class based on resolution R, general formula (10) dyes (Table 8)
[9] = mouse bone marrow-derived M1 macrophages, channel listed per compound, general formula (10) dyes (Table 8)
[10] = mouse bone marrow-derived M2 macrophages, channel listed per compound, general formula (10) dyes (Table 8)

Row | SMILES | Resolution ratio R [5] | Peak position of M1 macrophage [6] | Peak position of M2 macrophage [6] | Evaluation of macrophage subtype identification (rated from resolution R) | other results
1 | CCN1/C(=C\C=C\c2sc3ccccc3[n+]2CC)Sc2ccccc21 [(100)] | – | – | – | – | Resolution ratio R [1]: 0.372; Evaluation of macrophage subtype identification [2]: B (the compound is good in the subtype identification (namely, the resolution R is 0.15 or more and less than 0.5)); Peak position of M1 macrophage [3]: 16.41; Peak position of M2 macrophage [4]: 32.87
2 | CCN1/C(=C\C=C\c2ccc3ccccc3[n+]2CC)C=Cc2ccccc21 [(104)] | – | – | – | – | Resolution ratio R [1]: 0.698; Evaluation of macrophage subtype identification [2]: A (The compound is very good in the subtype identification (namely, the resolution R is 0.5 or more)); Peak position of M1 macrophage [3]: 95.26; Peak position of M2 macrophage [4]: 197.19; Selectivity (general formula (6) dyes (Table 7)): M2
3 | O=C(O)CCC(C(=O)O)N1C(=O)/C(=C\c2ccc3c(c2)C2CCCC2N3c2ccccc2)SC1=S (stereo not drawn) [(23)] | 0.185 | 1.10 | 1.48 | B (the compound is good in the subtype identification (namely, the resolution R is 0.15 or more and less than 0.5)) | –
4 | CCOC(=O)CN1C(=O)/C(=C\c2ccc3c(c2)C2CCCC2N3c2ccc(OC)cc2)SC1=S (stereo not drawn) [(21)] | 0.351 | 40.0 | 20.3 | B (the compound is good in the subtype identification (namely, the resolution R is 0.15 or more and less than 0.5)) | –
5 | O=C(O)CN1C(=O)/C(=C\c2ccc3c(c2)C2CCCC2N3c2ccccc2)SC1=S (stereo not drawn) [(24)] | 0.347 | 18.1 | 27.6 | B (the compound is good in the subtype identification (namely, the resolution R is 0.15 or more and less than 0.5)) | –
6 | Cc1cc(C)n2c1C=C1C=CC(CCC(=O)c3c(F)c(F)c(S(=O)(=O)O)c(F)c3F)=[N+]1[B-]2(F)F [(167)] | – | – | – | – | Resolution ratio R (M1 vs M2 macrophages from mouse bone marrow cells, general formula (11) dyes (Table 9)): 0.525; Evaluation of macrophage subtype identification (class based on resolution R, general formula (11) dyes (Table 9)): A (The compound is very good in the subtype identification (namely, the resolution R is 0.5 or more)); Peak position of M1 macrophage (mouse bone marrow-derived M1 macrophages, channel listed per compound, general formula (11) dyes (Table 9)): 14.5; Peak position of M2 macrophage (mouse bone marrow-derived M2 macrophages, channel listed per compound, general formula (11) dyes (Table 9)): 7.82
7 | CC1(C)C(/C=C/C=C/C=C/C=C2\N(CCCCCC(=O)[O-])c3ccccc3C2(C)C)=[N+](CCCCCC(=O)[O-])c2ccccc21.[Na+] [(91)] | – | – | – | – | Resolution ratio R [1]: 0.476; Evaluation of macrophage subtype identification [2]: B (the compound is good in the subtype identification (namely, the resolution R is 0.15 or more and less than 0.5)); Peak position of M1 macrophage [3]: 2.96; Peak position of M2 macrophage [4]: 13.89
8 | CCN1/C(=C\C=C\c2oc3ccccc3[n+]2CC)Oc2ccccc21 [(98)] | – | – | – | – | Resolution ratio R [1]: 0.507; Evaluation of macrophage subtype identification [2]: A (The compound is very good in the subtype identification (namely, the resolution R is 0.5 or more)); Peak position of M1 macrophage [3]: 21.95; Peak position of M2 macrophage [4]: 61.59
9 | CCN(CC)c1ccc2cc(C(=O)c3cc4ccc(N(CC)CC)cc4oc3=O)c(=O)oc2c1 [comparative compound (4), reference compound] | – | – | – | – | Resolution ratio R [7]: 0.053; Evaluation of macrophage subtype identification [8]: C (the compound cannot identify the subtypes (namely, the resolution R is less than 0.15)); difference in the staining intensity between the M1 macrophages and the M2 macrophages / identification (mouse bone marrow derived): no difference in the staining intensity; Peak position of M1 macrophage [9]: 0.88; Peak position of M2 macrophage [10]: 1.05; Selectivity (general formula (10) dyes (Table 8)): No
10 | COC(=O)C(C)N1C(=O)/C(=C\c2ccc3c(c2)C2CCCC2N3c2ccc(OC)cc2)SC1=S (stereo not drawn) [(7)] | 0.567 | 65.4 | 23.6 | A (The compound is very good in the subtype identification (namely, the resolution R is 0.5 or more)) | –
11 | CCN1c2ccc(/C=C3/SC(=S)N(CCC(=O)O)C3=O)cc2CC1C (stereo not drawn) [(56)] | 0.207 | 4.90 | 6.36 | B (the compound is good in the subtype identification (namely, the resolution R is 0.15 or more and less than 0.5)) | –
12 | O=C(O)CCN1C(=O)/C(=C\c2ccc3c(c2)C2CCCC2N3c2ccc(C=C(c3ccccc3)c3ccccc3)cc2)SC1=S (stereo not drawn) [(32)] | 0.476 | 88.7 | 155 | B (the compound is good in the subtype identification (namely, the resolution R is 0.15 or more and less than 0.5)) | –
13 | CCOC(=O)Cn1c(=O)/c(=C\c2ccc3c(c2)C2CCCC2N3Cc2ccccc2)s/c1=C1/SC(=S)N(CC)C1=O (stereo not drawn) [(55)] | 0.206 | 2.34 | 1.86 | B (the compound is good in the subtype identification (namely, the resolution R is 0.15 or more and less than 0.5)) | –
14 | CCN(CC)c1ccc2cc(-c3nc4ccccc4n3C)c(=O)oc2c1 [(119)] | – | – | – | – | Resolution ratio R [7]: 0.273; Evaluation of macrophage subtype identification [8]: B (the compound is good in the subtype identification (namely, the resolution R is 0.15 or more and less than 0.5)); Peak position of M1 macrophage [9]: 2.60; Peak position of M2 macrophage [10]: 3.94
15 | CCOC(=O)CN1C(=O)/C(=C\c2ccc3c(c2)C2CCCC2N3c2ccc(C=C(c3ccccc3)c3ccccc3)cc2)SC1=S (stereo not drawn) [(19)] | 0.319 | 0.90 | 0.64 | B (the compound is good in the subtype identification (namely, the resolution R is 0.15 or more and less than 0.5)) | –
